C=CC(=O)N1CCC[C@@H](n2nc(-c3ccc(Oc4ccccc4)cc3)c3c(N)ncnc32)C1
solubility (mole fraction)
Details | 298.15 K | 303.15 K | 308.15 K | 313.15 K | 323.15 K
in ethanol | 0.00312 | 0.00356 | 0.00396 | 0.00447 | 0.00551
in water | 1.42e-07 | 2.22e-07 | 3.12e-07 | 4.29e-07 | 7.77e-07
